Target: T1, human SGLT2 (Homo sapiens, UniProt P31639)
T1 construct: expressed in transfected cells; host or cells: CHO-K1
T1 sequence (P31639 1-672): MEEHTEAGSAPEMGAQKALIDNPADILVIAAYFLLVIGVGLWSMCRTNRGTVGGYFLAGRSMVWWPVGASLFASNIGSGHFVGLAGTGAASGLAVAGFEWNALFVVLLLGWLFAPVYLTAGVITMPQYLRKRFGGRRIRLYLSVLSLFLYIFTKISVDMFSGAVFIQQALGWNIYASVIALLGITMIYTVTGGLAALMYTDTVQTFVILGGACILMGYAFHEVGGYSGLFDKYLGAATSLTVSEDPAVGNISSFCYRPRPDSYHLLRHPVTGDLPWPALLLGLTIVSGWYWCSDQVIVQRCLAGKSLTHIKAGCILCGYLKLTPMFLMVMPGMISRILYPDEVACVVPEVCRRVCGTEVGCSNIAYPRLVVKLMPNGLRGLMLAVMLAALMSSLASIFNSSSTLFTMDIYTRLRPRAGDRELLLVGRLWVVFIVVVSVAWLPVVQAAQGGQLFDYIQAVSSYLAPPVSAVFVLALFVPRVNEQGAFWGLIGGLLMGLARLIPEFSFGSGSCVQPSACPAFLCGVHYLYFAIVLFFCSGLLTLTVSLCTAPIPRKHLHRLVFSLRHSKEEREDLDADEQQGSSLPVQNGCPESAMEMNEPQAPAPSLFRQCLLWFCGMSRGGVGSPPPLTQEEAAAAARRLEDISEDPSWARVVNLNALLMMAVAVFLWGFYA
Assay: Methyl-α-D-glucopyranoside intake inhibition activity in human SGLT2 stable expression CHO cells
Assay type: cell-based
Settings: methyl-α-D-(U-14C)glucopyranoside intake, 37° C., 45 minutes
Method: Test for Confirming Action of Inhibiting Human Na^+-Glucose Co-Transporters (SGLT1 and SGLT2)
(2) Preparation of Human SGLT2 Expression Vector
PCR was performed by KOD+DNA polymerase by taking a human kidney-derived cDNA library (a product of Clontech) as a template with the use of a synthesized DNA primer to amplify human SGLT2 cDNA. […] From the proliferated E. coli, a plasmid was purified according to the usual way. By taking this plasmid as a template, PCR was performed by KOD+DNA polymerase with the use of a synthetic DNA primer into which restriction enzyme recognition sites had been introduced to amplify human SGLT2 cDNA (a fragment added with Xho I recognition site on the upstream side and a Hind III recognition site on the downstream side). This amplified fragment was subjected to Xho I and Hind III digestion, and the digested fragments were connected to their recognition sites of the expression vector pcDNA 3.1(−) with the use of the Rapid DNA Ligation kit. The connected expression vector was introduced into E. coli competent cells (DH5α) and proliferated in an ampicillin-containing LB medium to obtain a human SGLT2 expression vector according to the usual way.
(3) Preparation of Human SGLT1 Stable Expression Cell and Human SGLT2 Stable Expression Cell
The human SGLT1 expression vector or the human SGLT2 expression vector which was digested with restriction enzyme Pvu I was introduced into CHO-K1 cells with the use of FuGene (a product of Roche Diagonostics). After introduction of the gene, the cells were incubated in a DMEM medium (a product of Gibco) containing penicillin (50 U/mL, a product of Sigma), streptomycin (50 mg/L, a product of Sigma), Geneticin (200 mg/L, a product of Nakalai Tesque) and 20% bovine fetal serum in the presence of 5% CO2 at 37° C. for about three weeks to obtain Genticin-resistant clones. From these clones, cells capable of stably expressing human SGLT1 or the human SGLT2 were selected and obtained by using sodium dependent sugar (methyl-α-D-glucopyranoside) intake activity as an index.
(4) Measurement of Methyl-α-D-glucopyranoside Intake Inhibition Activity
The human SGLT1 stable expression CHO cells or the human SGLT2 stable expression CHO cells was seeded in a 96-well plate to a density of 30,000 to 40,000 cells/well and incubated for four to six days. Next, the medium of the culture plate was removed, and a pretreatment buffer (a buffer containing 140 mM of choline chloride, 2 mM of potassium chloride, 1 mM of calcium chloride, 1 mM of magnesium chloride, 10 mM of 2-[4-(2-hydroxyethyl)-1-piperazinyl]ethanesulfonic acid and tris(hydroxymethyl)-aminomethane and having a pH of 7.4) was added in an amount of 150 μL per well and then left to stand at 37° C. for 20 minutes. The pretreatment buffer was removed and the pretreatment buffer was again added in an amount of 50 μL per well and then left to stand at 37° C. for 20 minutes. To 100 mL of a buffer (a buffer containing 140 mM of sodium chloride, 1 mM of potassium chloride, 1 mM of magnesium chloride, 1 mM of methyl-α-D-glucopyranoside, 10 mM of 2-[4-(2-hydroxyethyl)-1-piperazinyl]ethanesulfonic acid and tris(hydroxymethyl)aminomethane and having a pH of 7.4), there was added and mixed 6.3 mL of methyl-α-D-(U-^14C)glucopyranoside (200 mCi/L, a product of Amersham Pharmacia Biotech) to prepare an intake buffer, and a test compound was dissolved in this intake buffer and the resulting solution was used as a buffer for determining inhibition activity. Further, as a control, a test compound-free intake buffer was used. Furthermore, in order to determine a basic intake in the absence of the test compound and sodium, a basic intake buffer containing 140 mM of choline chloride instead of the sodium chloride was prepared in the same manner and used in the determina-tion. […]

In order of rising IC50:
1. CCc1ccc(Cc2cc([C@]3(O)C[C@H](CO)[C@@H](O)[C@H](O)[C@H]3O)c(OC)cc2OC)cc1 [Example 69, (1R,2R,3S,4R,5R)-1-[5-(4-Ethylbenzyl)-2,4-dimethoxy-phenyl]-5-(hydroxymethyl)cyclohexane-1,2,3,4-tetraol]  5.1 nM
2. CCc1ccc(Cc2cccc(C3=C[C@H](CO)[C@@H](O)[C@H](O)[C@H]3O)c2)cc1 [Example 64, (1R,2S,3S,6R)-4-[3-(4-Ethylbenzyl)phenyl]-6-(hydroxy-methyl)cyclohex-4-ene-1,2,3-triol]  6.6 nM
3. OC[C@H]1C[C@@H](Oc2ccccc2Cc2ccc(C3CC3)cc2)[C@H](O)[C@@H](O)[C@@H]1O [Example 8, [2-(4-Cyclopropylbenzyl)phenyl]-5a-carba-β-D-glucopyranoside]  7 nM
4. OCC1=C[C@@H](Oc2ccccc2Cc2ccc(C3CC3)cc2)[C@H](O)[C@@H](O)[C@@H]1O [Example 62, (1R,2S,3R,6R)-6-[2-(4-Cyclopropylbenzyl)phenoxy]-4-(hydroxymethyl)cyclohex-4-ene-1,2,3-triol]  7.1 nM
5. CCc1ccc(Cc2cc([C@@H]3C[C@H](CO)[C@@H](O)[C@H](O)[C@H]3O)c(OC)cc2OC)cc1 [Example 70, (1R,2R,3S,4S,6R)-4-[5-(4-Ethylbenzyl)-2,4-dimethoxy-phenyl]-6-(hydroxymethyl)cyclohexane-1,2,3-triol]  7.4 nM
6. OC[C@H]1C[C@@H](Oc2cnccc2Cc2ccc(C3CC3)cc2)[C@H](O)[C@@H](O)[C@@H]1O [Example 42, [4-(4-Cyclopropylbenzyl)pyridin-3-yl]-5a-carba-β-D-gluco-pyranoside]  7.7 nM
7. Cc1cc(O[C@@H]2C[C@H](CO)[C@@H](O)[C@H](O)[C@H]2O)c(Cc2ccc(C3CC3)cc2)s1 [Example 59, [2-(4-Cyclopropylbenzyl)-5-methylthiophen-3-yl]-5a-carba-β-D-glucopyranoside]  8.9 nM
8. CCc1ccc(Cc2ccc(OC)c([C@]3(O)C[C@H](CO)[C@@H](O)[C@H](O)[C@H]3O)c2)cc1 [Example 73, (1R,2R,3S,4R,5R)-1-[5-(4-Ethylbenzyl)-2-methoxyphenyl]-5-(hydroxymethyl)cyclohexane-1,2,3,4-tetraol]  11 nM
9. CSc1ccc(Cc2ccccc2O[C@@H]2C[C@H](CO)[C@@H](O)[C@H](O)[C@H]2O)cc1 [Example 11, [2-(4-Methylsulfanylbenzyl)phenyl]-5a-carba-β-D-gluco-pyranoside]  14 nM
10. COc1ccc(Cc2ccc(C)cc2O[C@@H]2C[C@H](CO)[C@@H](O)[C@H](O)[C@H]2O)cc1 [Example 54, [2-(4-Methoxybenzyl)-5-methylphenyl]-5a-carba-β-D-gluco-pyranoside]  14 nM
11. C=Cc1ccc(Cc2ccccc2O[C@@H]2C[C@H](CO)[C@@H](O)[C@H](O)[C@H]2O)cc1 [Example 44, [2-(4-Vinylbenzyl)phenyl]-5a-carba-β-D-glucopyranoside]  16 nM
12. CCc1ccc(Cc2sccc2O[C@@H]2C[C@H](CO)[C@@H](O)[C@H](O)[C@H]2O)cc1 [Example 55, [2-(4-Ethylbenzyl)thiophen-3-yl]-5a-carba-β-D-gluco-pyranoside]  17 nM
13. COc1ccc(Cc2c(F)cccc2O[C@@H]2C[C@H](CO)[C@@H](O)[C@H](O)[C@H]2O)cc1 [Example 12]  18 nM
14. CCOc1ccc(Cc2ccc(CC)cc2)cc1[C@@H]1C[C@H](CO)[C@@H](O)[C@H](O)[C@H]1O [Example 68, (1R,2R,3S,4S,6R)-4-[2-Ethoxy-5-(4-ethylbenzyl)phenyl]-6-(hydroxymethyl)cyclohexane-1,2,3-triol]  18 nM
15. CCc1ccc(Cc2ccccc2O[C@@H]2C[C@H](CO)[C@@H](O)[C@H](O)[C@H]2O)cc1 [Example 25, [2-(4-Ethylbenzyl)phenyl]-5a-carba-β-D-glucopyranoside]  31 nM
16. COc1ccc(Cc2ccccc2O[C@@H]2C[C@H](CO)[C@@H](O)[C@H](O)[C@H]2O)cc1 [Example 1, [2-(4-Methoxybenzyl)phenyl]-5a-carba-β-D-glucopyranoside]  61 nM
17. COc1ccc(Cc2cccc([C@@H]3C[C@H](CO)[C@@H](O)[C@H](O)[C@H]3O)c2)cc1 (single isomer, unassigned) [Example 2]  111 nM
